Reference: patent US20230340011A1 (Asteroid Therapeutics, priority 2022, published 2023)

Experiments:
LXRβ = LXRβ (Homo sapiens (Human), UniProt P55055); experiment: In vitro assay LXRβ: PathHunter NHR CHO cells, LXRβ / Steroid Receptor Co-activator Peptide enzyme fragment complementation; format: cell-based; conditions: PathHunter NHR CHO cells, full-length human LXRβ and SRCP, chemiluminescent signal; read-out: LXRβ PPI
Summary of the method: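 Co-activator recruitment measured by chemiluminescence after signal generation. The CHO line carries full-length human LXRβ tagged with ProLink and an SRCP–enzyme acceptor fusion in the nucleus; cells sat overnight at 37° C before testing, in charcoal-dextran filtered serum medium with 1% final vehicle.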

SREBP-2 = SREBP-2 (Homo sapiens (Human), UniProt Q12772); experiment: In vitro assay SREBP-2: PathHunter U2OS SREBP-2 Nuclear Translocation Cell Line, U18666A-stimulated; format: cell-based; conditions: PathHunter U2OS SREBP-2 nuclear translocation cells, U18666A 10 μM, overnight (16 hours)

LXRβ, sequence (P55055 whole entry, the tested form may be a part): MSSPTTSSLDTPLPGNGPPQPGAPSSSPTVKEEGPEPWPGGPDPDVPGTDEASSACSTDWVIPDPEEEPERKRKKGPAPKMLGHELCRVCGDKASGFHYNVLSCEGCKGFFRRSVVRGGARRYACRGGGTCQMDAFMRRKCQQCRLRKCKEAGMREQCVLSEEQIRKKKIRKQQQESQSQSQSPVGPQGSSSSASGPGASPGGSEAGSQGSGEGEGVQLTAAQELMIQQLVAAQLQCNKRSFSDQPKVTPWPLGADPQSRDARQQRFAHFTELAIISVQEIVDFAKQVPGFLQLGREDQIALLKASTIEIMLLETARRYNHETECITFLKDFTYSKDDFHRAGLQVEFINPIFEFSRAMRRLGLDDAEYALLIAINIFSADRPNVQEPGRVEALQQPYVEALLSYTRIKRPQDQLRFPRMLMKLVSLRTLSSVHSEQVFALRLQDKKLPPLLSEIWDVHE

Row | SMILES | EC50 (LXRβ) | IC50 (SREBP-2)
1 | C[C@H](CCC(=O)N(C)C)[C@H]1CC[C@H]2[C@@H]3C[C@@H](O)[C@H]4C[C@@H](O)CC[C@]4(C)[C@H]3CC[C@]12C [Example C1, (R)-4-((3S,5S,6R,8S,9S,10R,13R,14S,17R)-3,6-dihydroxy-10,13-dimethylhexadecahydro-1H-cyclopenta[a]phenanthren-17-yl)-N,N-dimethylpentanamide] | > 10000 nM | > 10000 nM
2 | C[C@@H](NC(=O)C(=O)N(C)C)[C@H]1CC[C@H]2[C@@H]3CC=C4C[C@@H](O)CC[C@]4(C)[C@H]3CC[C@]12C (single isomer, unassigned) [Example 118] | > 10000 nM | > 10000 nM
3 | C[C@H](CCC(=O)N1CCC[C@H]1C)[C@H]1CC[C@H]2[C@@H]3CC=C4C[C@@H](O)CC[C@]4(C)[C@H]3CC[C@]12C [Example 113, (R)-4-((3S,8S,9S,10R,13R,14S,17R)-3-hydroxy-10,13-dimethyl-2,3,4,7,8,9,10,11,12,13,14,15,16,17-tetradecahydro-1H-cyclopenta[a]phenanthren-17-yl)-1-((R)-2-methylpyrrolidin-1-yl)pentan-1-one] | 250 to 1000 nM | < 250 nM
4 | C[C@H](CCC(=O)N1CCC[C@@H]1C)[C@H]1CC[C@H]2[C@@H]3CC=C4C[C@@H](O)CC[C@]4(C)[C@H]3CC[C@]12C [Example 112, (R)-4-((3S,8S,9S,10R,13R,14S,17R)-3-hydroxy-10,13-dimethyl-2,3,4,7,8,9,10,11,12,13,14,15,16,17-tetradecahydro-1H-cyclopenta[a]phenanthren-17-yl)-1-((S)-2-methylpyrrolidin-1-yl)pentan-1-one] | 250 to 1000 nM | < 250 nM
5 | C[C@H](CCC(=O)N1CCN(C(=O)c2cnn(C)c2)[C@@H](C)C1)[C@H]1CC[C@H]2[C@@H]3CC=C4C[C@@H](O)CC[C@]4(C)[C@H]3CC[C@]12C [Example 565, (4R)-4-[(1R,3aS,3bS,7S,9aR,9bS,11aR)-7-hydroxy-9a,11a-dimethyl-1H,2H,3H,3aH,3bH,4H,6H,7H,8H,9H,9aH,9bH,10H,11H,11aH-cyclopenta[a]phenanthren-1-yl]-1-[(3S)-3-methyl-4-(1-methyl-1H-pyrazole-4-carbonyl)piperazin-1-yl]pentan-1-one] | > 10000 nM | < 250 nM
6 | C[C@H](CCC(=O)N1CCN(C(=O)C(C)(C)O)C[C@@H]1C)[C@H]1CC[C@H]2[C@@H]3CC=C4C[C@@H](O)CC[C@]4(C)[C@H]3CC[C@]12C [Example 653, (R)-4-((3S,8S,9S,10R,13R,14S,17R)-3-hydroxy-10,13-dimethyl-2,3,4,7,8,9,10,11,12,13,14,15,16,17-tetradecahydro-1H-cyclopenta[a]phenanthren-17-yl)-1-((S)-4-(2-hydroxy-2-methylpropanoyl)-2-methylpiperazin-1-yl)pentan-1-one] | > 10000 nM | < 250 nM
7 | C[C@H](Oc1cccnc1)[C@H]1CC[C@H]2[C@@H]3CC=C4C[C@@H](O)CC[C@]4(C)[C@H]3CC[C@]12C [Example 380, (3S,8S,9S,10R,13S,14S,17S)-10,13-dimethyl-17-((S)-1-(pyridin-3-yloxy)ethyl)-2,3,4,7,8,9,10,11,12,13,14,15,16,17-tetradecahydro-1H-cyclopenta[a]phenanthren-3-ol] | > 10000 nM | < 250 nM
8 | COc1cncnc1N1CCN(C(=O)CC[C@@H](C)[C@H]2CC[C@H]3[C@@H]4CC=C5C[C@@H](O)CC[C@]5(C)[C@H]4CC[C@]23C)C[C@@H]1C [Example 615, (R)-4-((3S,8S,9S,10R,13R,14S,17R)-3-hydroxy-10,13-dimethyl-2,3,4,7,8,9,10,11,12,13,14,15,16,17-tetradecahydro-1H-cyclopenta[a]phenanthren-17-yl)-1-((S)-4-(5-methoxypyrimidin-4-yl)-3-methylpiperazin-1-yl)pentan-1-one] | > 10000 nM | < 250 nM
9 | C[C@H](CCC(=O)N1CCN(c2cncn2C)CC1)[C@H]1CC[C@H]2[C@@H]3CC=C4C[C@@H](O)CC[C@]4(C)[C@H]3CC[C@]12C [Example 481, (4R)-4-[(1R,3aS,3bS,7S,9aR,9bS,11aR)-7-hydroxy-9a,11a-dimethyl-1H,2H,3H,3aH,3bH,4H,6H,7H,8H,9H,9aH,9bH,10H,11H,11aH-cyclopenta[a]phenanthren-1-yl]-1-[4-(1-methyl-1H-imidazol-5-yl)piperazin-1-yl]pentan-1-one] | > 10000 nM | < 250 nM
10 | C[C@H](CCC(=O)N1CCC(C)(C)CC1)[C@H]1CC[C@H]2[C@@H]3CC=C4C[C@@H](O)CC[C@]4(C)[C@H]3CC[C@]12C [Example 5, (R)-1-(4,4-dimethylpiperidin-1-yl)-4-((3S,8S,9S,10R,13R,14S,17R)-3-hydroxy-10,13-dimethyl-2,3,4,7,8,9,10,11,12,13,14,15,16,17-tetradecahydro-1H-cyclopenta[a]phenanthren-17-yl)pentan-1-one] | 1000 to 10000 nM | < 250 nM
11 | CCC1(O)CCN(C(=O)CC[C@@H](C)[C@H]2CC[C@H]3[C@@H]4CC=C5C[C@@H](O)CC[C@]5(C)[C@H]4[C@@H](O)C[C@]23C)CC1 [Example 158, (R)-4-((3S,8S,9S,10R,11S,13R,14S,17R)-3,11-dihydroxy-10,13-dimethyl-2,3,4,7,8,9,10,11,12,13,14,15,16,17-tetradecahydro-1H-cyclopenta[a]phenanthren-17-yl)-1-(4-ethyl-4-hydroxypiperidin-1-yl)pentan-1-one] | < 250 nM | 250 to 1000 nM
12 | CSC(=O)N1CCN(C(=O)CC[C@@H](C)[C@H]2CC[C@H]3[C@@H]4CC=C5C[C@@H](O)CC[C@]5(C)[C@H]4CC[C@]23C)CC1 [Example 551, (4R)-4-[(1R,3aS,3bS,7S,9aR,9bS,11aR)-7-hydroxy-9a,11a-dimethyl-1H,2H,3H,3aH,3bH,4H,6H,7H,8H,9H,9aH,9bH,10H,11H,11aH-cyclopenta[a]phenanthren-1-yl]-1-{4-[(methylsulfanyl)carbonyl]piperazin-1-yl}pentan-1-one] | > 10000 nM | < 250 nM
13 | C[C@H](CCc1cncs1)[C@H]1CC[C@H]2[C@@H]3CC=C4C[C@@H](O)CC[C@]4(C)[C@H]3CC[C@]12C [Example 173, (3S,8S,9S,10R,13R,14S,17R)-10,13-dimethyl-17-((R)-4-(thiazol-5-yl)butan-2-yl)-2,3,4,7,8,9,10,11,12,13,14,15,16,17-tetradecahydro-1H-cyclopenta[a]phenanthren-3-ol] | > 10000 nM | 250 to 1000 nM
14 | CC(C)N1CCN(C(=O)CC[C@@H](C)[C@H]2CC[C@H]3[C@@H]4CC=C5C[C@@H](O)CC[C@]5(C)[C@H]4CC[C@]23C)CC1 [Example 316, (R)-4-((3S,8S,9S,10R,13R,14S,17R)-3-hydroxy-10,13-dimethyl-2,3,4,7,8,9,10,11,12,13,14,15,16,17-tetradecahydro-1H-cyclopenta[a]phenanthren-17-yl)-1-(4-isopropylpiperazin-1-yl) pentan-1-one] | > 10000 nM | < 250 nM
15 | C[C@H](CCC(=O)N1CCN(c2nnnn2C)CC1)[C@H]1CC[C@H]2[C@@H]3CC=C4C[C@@H](O)CC[C@]4(C)[C@H]3CC[C@]12C [Example 606, (R)-4-((3S,8S,9S,10R,13R,14S,17R)-3-hydroxy-10,13-dimethyl-2,3,4,7,8,9,10,11,12,13,14,15,16,17-tetradecahydro-1H-cyclopenta[a]phenanthren-17-yl)-1-(4-(1-methyl-1H-tetrazol-5-yl)piperazin-1-yl)pentan-1-one] | > 10000 nM | < 250 nM
16 | C[C@H](OC(=O)C(=O)N1CCCCC1)[C@H]1CC[C@H]2[C@@H]3CC=C4C[C@@H](O)CC[C@]4(C)[C@H]3CC[C@]12C [Example 199, (1S)-1-[(1S,3aS,3bS,7S,9aR,9bS,11aS)-7-hydroxy-9a,11a-dimethyl-1H,2H,3H,3aH,3bH,4H,6H,7H,8H,9H,9aH,9bH,10H,11H,11aH-cyclopenta[a]phenanthren-1-yl]ethyl2-oxo-2-(piperidin-1-yl)acetate] | 250 to 1000 nM | < 250 nM
17 | C[C@H](CCC(=O)N1CCN(c2ccnc(OCCO)n2)CC1)[C@H]1CC[C@H]2[C@@H]3CC=C4C[C@@H](O)CC[C@]4(C)[C@H]3CC[C@]12C [Example 564, (4R)-4-[(1R,3aS,3bS,7S,9aR,9bS,11aR)-7-hydroxy-9a,11a-dimethyl-1H,2H,3H,3aH,3bH,4H,6H,7H,8H,9H,9aH,9bH,10H,11H,11aH-cyclopenta[a]phenanthren-1-yl]-1-{4-[2-(2-hydroxyethoxy)pyrimidin-4-yl]piperazin-1-yl}pentan-1-one] | > 10000 nM | < 250 nM
18 | C[C@H](CCC(=O)N1CCN(C)C(=O)C1)[C@H]1CC[C@H]2[C@@H]3CC=C4C[C@@H](O)CC[C@]4(C)[C@H]3CC[C@]12C [Example 361, 4-[(4R)-4-[(1R,3aS,3bS,7S,9aR,9bS,11aR)-7-hydroxy-9a,11a-dimethyl-1H,2H,3H,3aH,3bH,4H,6H,7H,8H,9H,9aH,9bH,10H,11H,11aH-cyclopenta[a]phenanthren-1-yl]pentanoyl]-1-methylpiperazin-2-one] | > 10000 nM | 250 to 1000 nM
19 | C[C@H](CCc1ncccc1CO)[C@H]1CC[C@H]2[C@@H]3CC=C4C[C@@H](O)CC[C@]4(C)[C@H]3CC[C@]12C [Example 454, (3S,8S,9S,10R,13R,14S,17R)-17-((R)-4-(3-(hydroxymethyl)pyridin-2-yl)butan-2-yl)-10,13-dimethyl-2,3,4,7,8,9,10,11,12,13,14,15,16,17-tetradecahydro-1H-cyclopenta[a]phenanthren-3-ol] | < 250 nM | < 250 nM
